Results published in patent US11632973B2, “Composition comprising taste modulation compounds, their use and foodstuff comprising them” (V. MANE FILS, priority 2015, dated 2023).
Entries after “also recorded” stand apart in the source; their conditions may differ.

Key:
Format in all cases: in vivo
[1] = test system: panelists; assay: Various lactams added to cheese sauce, saltiness evaluation (Deviation from Reference); conditions: for perception of creaminess / perception of saltiness: cheese sauce comprising the compound, compared to the control; for Test Effects Taster 1 / Test Effects Taster 2 / Test Effects Taster 3 / Test Effects Taster 4: cheese sauce plus 5 ppm compound, compared with cheese sauce alone
Experimental: Epsilon-caprolactam, 2-piperidone, and N-methylcaprolactam were added to cheese sauce.
All cheese sauce samples were served at 21° C. Samples were stirred by hand prior to portioning to ensure even distribution of components. Approximately 9 ml of cheese sauce was served into odorless, translucent, one-ounce cups labeled with three-digit codes and capped with a lid. The samples were portioned out approximately 45 minutes prior to evaluation.
Panelists evaluated all samples in fully enclosed partitioned booths under white lights. Fizz NETWORK Software Acquisitions Biosystemes 2.47B was used for data collection. Each panelist was provided with filtered water for rinsing and instructed to follow a strict rinsing procedure. The rinsing protocol required panelists to rinse prior to tasting the first sample, and after tasting each sample.
Samples were evaluated using a Deviation from Reference (DFR) method. Panelists were given an identified reference labeled “000” and a coded sample simultaneously. The coded sample was either a blind, coded reference or a coded test sample. The panelists were instructed to taste the reference (000) first and mentally evaluate its SALTINESS intensity. Panelists were then instructed to taste and rate the coded sample's intensity for SALTINESS compared to the identified reference. Sample sets were given to the panelists in balanced, randomized order. A one-minute wait period was enforced between sample sets to reduce flavour carryover.
Panelists rated SALTINESS intensity difference from the reference using a 9-pt scale anchored with the following descriptors: (−4) Extremely less than Reference, (0) Same as Reference, (4) Extremely more than Reference. Number values were NOT shown on the scale. Statistical mean differences were calculated using one-way ANOVA using Fizz Calculations Biosystemes 2.47B. A significance level of p≤0.05 was set for statistical tests. Compared to the control the perceptions of saltiness and creaminess in the cheese sauce comprising epsilon-caprolactam, 2-piperidone, and N-methylcaprolactam is increased.

[2] = test system: expert tasters; assay: Effect on sweetness perception of Rebaudioside-A in water; conditions: for Taster Observations Taster 1 / Taster Observations Taster 2 / Taster Observations Taster 3 / Taster Observations Taster 4: Reb-A 250 ppm in water, TMC level 5 ppm; for bitter interference: Rebaudioside-A at 250 ppm, 5 ppm compound; for perception of sweetness: products with high intensity sweetener, four expert tasters, vs control
Experimental: The taste perception of the products containing the high intensity sweeteners without epsilon-caprolactam or 2-piperidone (Control) is compared with the same product (Test) containing epsilon-caprolactam or 2-piperidone. […] When a tasting solution is dosed with Rebaudioside-A at 250 ppm, with either epsilon-caprolactam or 2-piperidone at each 5 ppm, “bitter interference” and brightens pure sweetness are reduced.

[3] = test system: expert tasters; assay: as above
[4] = Reb-A 25 ppm in water, TMC level 5 ppm

Row | SMILES | perception of creaminess [1] | perception of saltiness [1] | Test Effects Taster 1 [1] | Test Effects Taster 2 [1] | Test Effects Taster 3 [1] | Test Effects Taster 4 [1] | Taster Observations Taster 1 [2] | Taster Observations Taster 2 [2] | Taster Observations Taster 3 [2] | Taster Observations Taster 4 [2] | bitter interference [2] | perception of sweetness [2] | Taster Observations Taster 1 [3, 4] | Taster Observations Taster 2 [3, 4] | Taster Observations Taster 3 [3, 4] | Taster Observations Taster 4 [3, 4] | sweetness ([3]; Rebaudioside-A at 25 ppm, 5 ppm compound)
1 | O=C1CCCCN1 [2-piperidone] | increased | increased | Delayed saltier; also recorded: More dairy impact | Increased saltiness; also recorded: Increased creaminess | Saltier; also recorded: Creamier | Clean sweet; also recorded: Stronger sweet | clean sweet,; also recorded: control | clean sweet,; also recorded: no lingering | clean sweet,; also recorded: no bitter,; also recorded: not linger | clean sweet,; also recorded: stronger sweet | reduced | purified and amplified | sweeter,; also recorded: clean | clean sweet,; also recorded: no bitter | no bitter | best - sweetest,; also recorded: clean | purified and amplified
2 | CN1CCCCCC1=O [N-methylcaprolactam] | increased | increased | Slight increase in saltiness | Unclean; also recorded: Slightly bitter | Bitter; also recorded: Increased saltiness | Least effective of three |  |  |  |  |  |  |  |  |  |  | 
3 | O=C1CCCCCN1 [epsilon-caprolactam] | increased | increased | Slightly bitter; also recorded: Increased saltiness | Sweeter with less linger | Cleaner; also recorded: Less lingering; also recorded: Sweeter upfront | Cleaner; also recorded: Less lingering; also recorded: Sweeter upfront | sweeter, less; also recorded: lingering,; also recorded: slightly bitter | less linger | sweeter; also recorded: cleaner,; also recorded: less lingering | sweeter upfront,; also recorded: cleaner,; also recorded: less lingering | reduced | purified and amplified | sweet,; also recorded: slightly bitter | dirty,; also recorded: unclean |  | slightly higher; also recorded: sweet | 
